Test results from patent publication US20090215841A1, “D2 Receptor Ligand-078” (ASTRAZENECA AB, priority 2008, published 2009).

Tests used:
D2S receptor = D2S receptor (Homo sapiens, UniProt P14416); assay: D2 receptor binding assay ([3H]-raclopride displacement)
Description: The ability of test compounds to displace ^3H-raclopride at the D2S receptor was determined on membranes from D2s-transfected CHO cells (Bmax 13 pmol/mg protein). An assay uses a standard 96-well glass fiber filter plate to retain radioligand bound by the receptor. Retained ^3H is determined in a TopCount scintillation plate counter following the addition of a liquid scintillant to each well. Compounds are evaluated for their potency using competition curve analysis, resulting in calculated Ki values.

[1] = target: D2s receptor (membranes from D2s stably-transfected CHO cells) (Homo sapiens, UniProt P14416); assay: GTPγS assay, block of dopamine-stimulated [35S]-GTPγS binding
Description: GTPγS assay was performed substantially as described by Lazareno. […] Antagonist activity of compounds was determined by the ability of test compounds to block dopamine-stimulated [^35S]-GTPγS binding to cell membranes from D2s stably-transfected CHO cells.

Male Long-Evans rats = assay: Conditioned Avoidance Responding (CAR) assay; assay type: in vivo, rat; conditions: for motor impairment in CAR (shock escapes): dose not stated; for efficacy in CAR (shock avoidance): rats, dosed 60 min prior to testing
Description: Male Long-Evans rats were trained to traverse to the opposite side of a standard shuttle cage following presentation of an auditory and visual stimulus in order to avoid delivery of electric shock to the floor of the cage. Daily sessions consisted of up to 80 trials. If shock was delivered, animals always had the opportunity to escape the shock by traversing to the opposite side of the cage. Drug was administered (via s.c. or p.o. route) 60 min prior to testing and the percentage of trials in which shock was avoided and escaped was recorded.

[2] = system: rat plasma prolactin levels; assay: Prolactin assay (plasma prolactin by ELISA); assay type: in vivo; conditions: male Sprague Dawley rats, s.c., one-hour post dose
Excerpt: As discussed above, hyperprolactinemia is a side effect that can be observed following administration of D2 antagonists. In contrast, administration of D2 agonists to human subjects results in large reductions in prolactin levels in blood (hypoprolactinemia).
Male Sprague Dawley rats were subcutaneously administered with vehicle or test compounds. Trunk blood was collected one-hour post dose and plasma evaluated by an ELISA assay to determine prolactin levels.

[3] = system: D-amphetamine hyperlocomotion in habituated rats; assay: D-amphetamine-induced hyperlocomotor activity (LMA) in habituated rat model; conditions: in vivo, sc, 1 mg/kg
Description: LMA was assessed in male Long Evans rats using a paradigm that included a habituation phase followed by administration of 1 mg/kg D-amphetamine. Animals were allowed to acclimatize to the testing room for 1 hour before being weighed and placed into activity chambers. Thirty minutes after LMA measurements began, animals were briefly removed, subcutaneously dosed with vehicle or test drug at different doses (μmol/kg), and returned to the chambers. After 30 minutes, animals were again removed and dosed with vehicle or D-amphetamine at 1 mg/kg (s.c.). After returning animals to the activity chambers, LMA was assessed for 60 minutes. […] Statistical analysis was made of total distance traveled after D-amphetamine administration using ANOVA and Tukey's post hoc analysis where appropriate. All values are expressed as Mean and SD.

CF-1 male mice = assay: Catalepsy assay, mice; assay type: in vivo, mouse
Description: (§1) CF-1 male mice or Sprague Dawley rats are dosed (via i.p., p.o. or s.c. route) with a test compound at given concentrations or a vehicle. […] The length of time (in seconds) during which each mouse maintains the initial forepaw bar position is recorded (cataleptic pose). Maximum cut-off observation time is 60 seconds. Results are expressed as means (in sec) for each dose group.

Sprague Dawley rats = assay: Catalepsy assay, rats; assay type: in vivo, rat
Description: as §1

D2S receptor, sequence (P14416 1-414 isoform P14416-2): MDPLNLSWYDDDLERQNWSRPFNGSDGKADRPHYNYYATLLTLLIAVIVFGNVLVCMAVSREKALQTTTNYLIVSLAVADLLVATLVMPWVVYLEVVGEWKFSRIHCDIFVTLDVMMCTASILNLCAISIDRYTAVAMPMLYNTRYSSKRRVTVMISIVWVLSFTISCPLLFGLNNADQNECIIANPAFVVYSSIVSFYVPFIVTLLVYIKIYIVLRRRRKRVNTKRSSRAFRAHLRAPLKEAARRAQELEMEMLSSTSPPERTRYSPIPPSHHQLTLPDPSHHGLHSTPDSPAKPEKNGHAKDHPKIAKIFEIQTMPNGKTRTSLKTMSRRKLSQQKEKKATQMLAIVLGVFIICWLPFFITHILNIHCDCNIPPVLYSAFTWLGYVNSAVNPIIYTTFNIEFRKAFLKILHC
D2s receptor (membranes from D2s stably-transfected CHO cells), sequence (P14416 1-414 isoform P14416-2): as above

Ki (D2S receptor) [nM]	IC50 [1] [nM]	motor impairment in CAR (shock escapes) (Male Long-Evans rats)	Structure (SMILES)	efficacy in CAR (shock avoidance) (Male Long-Evans rats)	no observable effect level (NOEL) on plasma prolactin [2] [µmol/kg]	MED, reversal of LMA [3] [µmol/kg]	catalepsy (CF-1 male mice; 30 μmol/kg)	catalepsy (CF-1 male mice; positive control)	catalepsy (Sprague Dawley rats)
151	417		CN[C@@H]1Cc2cc3nc(N)sc3cc2C1						
21.9	74.1		CCN(CC)[C@@H]1Cc2cc3nc(N)sc3cc2C1						
		exhibited motor impairment	O=C1CCc2ccc(OCCCCN3CCN(c4cccc(Cl)c4Cl)CC3)cc2N1 [Aripiprazole]	effective	2.2				
		exhibited motor impairment	O=C(CCCN1CCC(O)(c2ccc(Cl)cc2)CC1)c1ccc(F)cc1 [Haloperidol]	effective				induced catalepsy	induced catalepsy
			Cc1nc2n(c(=O)c1CCN1CCC(c3noc4cc(F)ccc34)CC1)CCCC2 [Risperidone]		0.07				

Structure (SMILES)	Ki (D2S receptor) [nM]	IC50 [1] [nM]	motor impairment in CAR (shock escapes) (Male Long-Evans rats)	efficacy in CAR (shock avoidance) (Male Long-Evans rats)	no observable effect level (NOEL) on plasma prolactin [2] [µmol/kg]	MED, reversal of LMA [3] [µmol/kg]	catalepsy (CF-1 male mice; 30 μmol/kg)	catalepsy (CF-1 male mice; positive control)	catalepsy (Sprague Dawley rats)
CCCN[C@@H]1Cc2cc3nc(N)sc3cc2C1 [Compound C3]	115	437	exhibited motor impairment	effective	10	10	exhibited catalepsy		
